Test results as given in patent publication US20110021471A1, “REDUCING Abeta42 LEVELS AND Abeta AGGREGATION” (priority 2007, published 2011).

Target: T1, APP(C100)-Flag (Homo sapiens, UniProt P05067)
T1 construct: APP(C100)-Flag, comprising the 99 C-terminal residues of APP plus a methionine at the N-terminus; added methionine (N)
Experiment: Photoaffinity labelling of APP(C100)-Flag and competition
Type: binding
Description: FIG. 1. […] The top panel is for anti-biotin staining; the middle panel is for anti-FLAG staining; and the bottom panel is an overlay of anti-biotin (red and anti-Flag green, LiCor Odyssey imaging). (E) Same samples as in D, but analyzed using an ELISA. Following crosslinking, C100Flag and N100 Flag were captured using anti-FLAG plate, and biotin incorporation was measured using streptavidin-HRP. […] Fen-B (50 μM) was crosslinked to Aβ (10 μM). Biotin labeling was measured following capture with an anti-Aβ1-16 antibody and detection with streptavidin-HRP.
Photoaffinity labelling. All experiments used the following general protocol. Samples (recombinant or synthetic peptides, cell lysates and membrane preparations) were exposed in borosilicate test tubes to ultraviolet light (350 nm) in a Rayonet Photoreactor R100 (RPR-3500 lamps, Southern New England Ultra Violet Company) in a cold room (4° C.) for 30 minutes or as otherwise noted. Crosslinked samples were analyzed by ELISA for biotin incorporation, or analyzed directly by SDS-PAGE (Criterion-XT, Bio-Rad), or after precipitation with streptavidin ultralink plus beads (Pierce). After immunblotting, proteins were detected using chemiluminesence (ECL Plus, GEHealthcare) or near-infrared fluorescence (LiCor Odyssey). Full-length APP and APP CTFs (CTF83, CTF99) were detected with CT20, a rabbit polyclonal antibody against the C-terminus of APP. Biotin was detected with an affinity-purified rabbit polyclonal antibody (Bethyl). Cell-based screens for amyloid-β modulation. Human H4 neuroglioma cells (American Type Culture Collection, ATCC) expressing wild-type APP695 protein or CTF105 fused to secreted alkaline phosphatase which is efficiently processed to APP CTFs (CTF83, CTF99) and produce high levels of amyloid-β, were used for the cell-based screens as previously described. Cells were incubated for 5-6 hours in the presence of the various compounds in Opti-Mem culture medium containing 1% fetal bovine serum. Compounds were dissolved in dimethylsulphoxide (DMSO; 0.5% final concentration) and diluted 200-fold. Media was analyzed for various amyloid-β species (40, 42 and total) using ELISAs as described herein. The EC50 values for changes in amyloid-β species were calculated by fitting sigmoid dose-response curves using nonlinear regression in Prism (GraphPad) and are shown as values±s.e.m. Statistical analysis. Data are presented as either percentage control or mean±s.e.m. Results were analyzed using Prism (Graph Pad) with t-tests or one-way analysis of variance analyses (ANOVAs) with Dunnett's post-hoc correction for comparison of multiple samples to a control. Statistical significance is shown as P,0.05 (one asterisk), P,0.01 (two asterisks) or P,0.001 (three asterisks).
The ability of a purified, recombinant Flag-tagged γ-secretase substrate derived from APP (APP(C100)-Flag, comprising the 99 C-terminal residues of APP plus a methionine at the N-terminus) to be labeled by Fen-B and Flurbi-BpB was tested.

T1 sequence (P05067 672-770 limits assumed): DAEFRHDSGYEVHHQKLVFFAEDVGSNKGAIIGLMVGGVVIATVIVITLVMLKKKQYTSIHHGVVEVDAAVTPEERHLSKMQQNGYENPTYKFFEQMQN

competition for binding of APP(C100)-Flag by Fen-B and Flurbi-BpB: competed
SMILES: O=C(O)c1cc(C=Cc2ccc(C=Cc3ccc(O)c(C(=O)O)c3)cc2)ccc1O [X-34, 1,4-bis(3-carboxy-4-hydroxyphenylethenyl)-benzene]
